# Results from article PMC10593844, “Structure-function analyses reveal key molecular determinants of HIV-1 CRF01_AE resistance to the entry inhibitor temsavir” (Nature Communications, 2023).
# Where “and” joins values, the source holds several entries; their conditions need not be identical. Equal entries are not always repeated. Where two headings read alike, the source gives them in different places.
# Assays:
# [1] = system: HIV-1 pseudovirus bearing EnvJR-FL S375F; experiment: organism not typed; assay type: cell-based
# [2] = system: HIV-1 pseudovirus bearing EnvJR-FL S375Y; experiment: organism not typed; assay type: cell-based; conditions: for Relative infectivity (%): JRFL S375Y
# [3] = system: HIV-1 pseudovirus bearing EnvJR-FL S375W; experiment: organism not typed; assay type: cell-based; conditions: for Relative infectivity (%): JRFL S375W
# [4] = system: HIV-1 pseudovirus bearing CRF01_AE 92TH023 Env LM; experiment: organism not typed; assay type: cell-based; conditions: for Relative infectivity (%): 92TH023 LM
# [5] = system: HIV-1 pseudovirus bearing CRF01_AE CM244 Env LMHS; experiment: organism not typed; assay type: cell-based; conditions: for Relative infectivity (%): CM244 LMHS
# [6] = system: HIV-1 pseudovirus bearing clade B YU2 Env LM; experiment: organism not typed; assay type: cell-based; conditions: for Relative infectivity (%): YU2 LM
# [7] = system: HIV-1 pseudovirus bearing clade B YU2 Env LM+SH; experiment: organism not typed; assay type: cell-based; conditions: for Relative infectivity (%): YU2 LM+SH
# [8] = system: HIV-1 pseudovirus bearing clade B YU2 Env Y61H; assay type: cell-based
# [9] = system: HIV-1 pseudovirus bearing clade B YU2 Env H105Q/I108V; assay type: cell-based
# [10] = system: HIV-1 pseudovirus bearing clade B YU2 Env D474N/M475I/R476K; assay type: cell-based
# [11] = system: HIV-1JR-FL Env S375T on HEK293T cells; assay type: binding; conditions: JRFL S375T; temsavir 10 µM; listed as TMR
# [12] = system: HIV-1JR-FL Env S375M on HEK293T cells; assay type: binding; conditions: JRFL S375M; temsavir 10 µM; listed as TMR
# [13] = system: HIV-1JR-FL Env S375H on HEK293T cells; assay type: binding; conditions: JRFL S375H; temsavir 10 µM; listed as TMR
# [14] = system: HIV-1JR-FL Env S375Y on HEK293T cells; assay type: binding; conditions: JRFL S375Y; temsavir 10 µM; listed as TMR
# [15] = system: HIV-1JR-FL Env S375W on HEK293T cells; assay type: binding; conditions: JRFL S375W; temsavir 10 µM; listed as TMR
# [16] = system: CRF01_AE 92TH023 Env WT on HEK293T cells; assay type: binding; conditions: 92TH023 WT; temsavir 10 µM; listed as TMR
# [17] = system: CRF01_AE 92TH023 Env LMHS on HEK293T cells; assay type: binding; conditions: 92TH023 LMHS; temsavir 10 µM; listed as TMR
# [18] = system: CRF01_AE CM244 Env WT on HEK293T cells; assay type: binding; conditions: temsavir 10 µM, listed as TMR
# [19] = system: CRF01_AE CM244 Env LM on HEK293T cells; assay type: binding; conditions: temsavir 10 µM, listed as TMR
# [20] = target: T1, clade B YU2 Env WT on HEK293T cells (Human immunodeficiency virus type 1 group M subtype B, UniProt P35961); assay type: binding; conditions: temsavir 10 µM, listed as TMR
# T1 construct: expressed in transfected cells; host or cells: HEK293T (pSVIIIenv co-transfected with a Tat expressor)
# [21] = target: T2, clade B YU2 Env S375T on HEK293T cells (Human immunodeficiency virus type 1 group M subtype B, UniProt P35961, S370T); assay type: binding; conditions: temsavir 10 µM, listed as TMR
# T2 construct: expressed in transfected cells; host or cells: HEK293T (pSVIIIenv co-transfected with a Tat expressor)
# [22] = target: T3, clade B YU2 Env S375H on HEK293T cells (Human immunodeficiency virus type 1 group M subtype B, UniProt P35961, S370H); assay type: binding; conditions: temsavir 10 µM, listed as TMR
# T3 construct: expressed in transfected cells; host or cells: HEK293T (pSVIIIenv co-transfected with a Tat expressor)
# [23] = system: clade B YU2 Env LM on HEK293T cells; assay type: binding; conditions: temsavir 10 µM, listed as TMR
# [24] = system: clade B YU2 Env LMSH on HEK293T cells; assay type: binding; conditions: temsavir 10 µM, listed as TMR
# [25] = system: panel of 208 HIV-1 Envs from different clades; conditions: cited from earlier work; for IC50: read-out: Neutralization IC50
# [26] = system: HIV-1 Env with Ile475; set-up: method as in PMID 28825711; conditions: Ile475 substitution; cited from earlier work
compound,measurement,setting,value
"COc1cnc(-n2cnc(C)n2)c2[nH]cc(C(=O)C(=O)N3CCN(C(=O)c4ccccc4)CC3)c12 [Temsavir, temsavir]",IC50,[1]; Cf2Th-CD4/CCR5,> 0.1 µM
same,Relative infectivity (%),"[1]; JRFL S375F, Temsavir 0.1 nM",97.0588% and 121.506% and 78.411%
same,IC50,[2]; Cf2Th-CD4/CCR5,> 0.1 µM
same,Relative infectivity (%),[2]; Temsavir 0.1 nM,95.0549% and 100.21% and 92.5783%
same,Relative infectivity (%),[2]; Temsavir 0.5 nM,93.6966% and 92.3523% and 97.9897%
same,Relative infectivity (%),[2]; Temsavir 1 nM,103.494% and 95.9187% and 99.1671%
same,Relative infectivity (%),[2]; Temsavir 5 nM,82.1418% and 84.655% and 82.6307%
same,IC50,[3]; Cf2Th-CD4/CCR5,> 0.1 µM
same,Relative infectivity (%),[3]; Temsavir 0.1 nM,99.9863% and 100.025% and 95.7102%
same,Relative infectivity (%),[3]; Temsavir 0.5 nM,97.6131% and 107.833% and 88.0394%
same,Relative infectivity (%),[3]; Temsavir 1 nM,112.34% and 95.1648% and 85.749%
same,Relative infectivity (%),[3]; Temsavir 5 nM,108.208% and 99.6983% and 99.0301%
same,Relative infectivity (%),[4]; Temsavir 1 nM,82.8885% and 105.829% and 81.5038%
same,Relative infectivity (%),[4]; Temsavir 5 nM,63.4532% and 71.1451% and 85.9246%
same,Relative infectivity (%),[4]; Temsavir 10 nM,66.9458% and 79.651% and 87.1271%
same,Relative infectivity (%),[4]; Temsavir 50 nM,76.0092% and 99.9867% and 85.6288%
same,IC50,[4]; Cf2Th-CD4/CCR5,> 0.05 µM
same,Relative infectivity (%),[5]; Temsavir 5 nM,5.229% and 3.403% and 2.611%
same,Relative infectivity (%),[5]; Temsavir 10 nM,1.16% and 4.177% and 2.605%
same,Relative infectivity (%),[5]; Temsavir 50 nM,0.3118% and 0.2016% and 0.39%
same,IC50,[5]; Cf2Th-CD4/CCR5,0.0007 µM
same,IC50,[6]; Cf2Th-CD4/CCR5,0.00917 µM
same,Relative infectivity (%),"[6]; Temsavir 1 nM, Fig 2f",76.4591% and 76.4018% and 119.182%
same,Relative infectivity (%),"[6]; Temsavir 2 nM, Fig S1",74.57% and 102.72% and 96.57%
same,Relative infectivity (%),"[6]; Temsavir 5 nM, Fig 2f",65.3412% and 84.0034% and 74.4376%
same,Relative infectivity (%),"[6]; Temsavir 10 nM, Fig 2f",41.1017% and 43.3512% and 50.8185%
same,Relative infectivity (%),"[6]; Temsavir 10 nM, Fig S1",72.47% and 80.59% and 43.3%
same,Relative infectivity (%),"[6]; Temsavir 50 nM, Fig 2f",13.0704% and 12.6708% and 13.2107%
same,Relative infectivity (%),"[6]; Temsavir 50 nM, Fig S1",31.31% and 45.33% and 30.59%
same,Relative infectivity (%),"[6]; Temsavir 100 nM, Fig 2f",5.153% and 3.308% and 7.353%
same,Relative infectivity (%),"[6]; Temsavir 100 nM, Fig S1",8.15% and 12.22% and 6.99%
same,IC50,[7]; Cf2Th-CD4/CCR5,> 0.1 µM
same,Relative infectivity (%),[7]; Temsavir 1 nM,101.627% and 98.3187% and 88.9144%
same,Relative infectivity (%),[7]; Temsavir 5 nM,105.436% and 97.7235% and 87.2207%
same,Relative infectivity (%),[7]; Temsavir 10 nM,114.432% and 105.33% and 87.5665%
same,Relative infectivity (%),[7]; Temsavir 50 nM,115.171% and 108.587% and 70.9415%
same,Relative infectivity (%),[7]; Temsavir 100 nM,115.039% and 106.712% and 94.0587%
same,Relative infectivity (%),[8]; Temsavir 5 nM,2.81% and 1.74% and 3.98%
same,Relative infectivity (%),[8]; Temsavir 10 nM,1.05% and 1.23% and 1.34%
same,Relative infectivity (%),[8]; Temsavir 50 nM,1.04% and 1.28% and 3.8%
same,Relative infectivity (%),[8]; Temsavir 100 nM,0.97% and 2.23% and 1.32%
same,Relative infectivity (%),[9]; Temsavir 5 nM,1.06% and 2.62% and 1.23%
same,Relative infectivity (%),[9]; Temsavir 10 nM,1.04% and 2.29% and 1.51%
same,Relative infectivity (%),[9]; Temsavir 50 nM,0.98% and 2.22% and 1.35%
same,Relative infectivity (%),[9]; Temsavir 100 nM,1.01% and 5.2% and 2.05%
same,Relative infectivity (%),[10]; Temsavir 5 nM,61.12% and 58.84% and 77.63%
same,Relative infectivity (%),[10]; Temsavir 100 nM,18.08% and 29.17% and 19.26%
same,sCD4 binding (+TMR) - Fold over DMSO,[11],0.1797 and 0.1688 and 0.2064
same,sCD4 binding (+TMR) - Fold over DMSO,[12],0.2258 and 0.2038 and 0.2793
same,sCD4 binding (+TMR) - Fold over DMSO,[13],1.158 and 1.01 and 1.118
same,sCD4 binding (+TMR) - Fold over DMSO,[14],1.015 and 0.9829 and 1.003
same,sCD4 binding (+TMR) - Fold over DMSO,[15],1.038 and 0.9906 and 0.8801
same,sCD4 binding (+TMR) - Fold over DMSO,[16],0.9655 and 0.9282 and 0.9905
same,sCD4 binding (+TMR) - Fold over DMSO,[17],0.3873 and 0.484 and 0.5948
same,sCD4 binding (+TMR) - Fold over DMSO,[18],1.042 and 0.9403 and 0.9549
same,sCD4 binding (+TMR) - Fold over DMSO,[19],1.043 and 1.054 and 0.9268
same,sCD4 binding (+TMR) - Fold over DMSO,[20],0.4934 and 0.673 and 0.6222
same,sCD4 binding (+TMR) - Fold over DMSO,[21],0.6011 and 0.7082 and 0.7739
same,sCD4 binding (+TMR) - Fold over DMSO,[22],1.163 and 1.208 and 0.9124
same,sCD4 binding (+TMR) - Fold over DMSO,[23],0.8112 and 0.8641 and 1.018
same,sCD4 binding (+TMR) - Fold over DMSO,[24],1.199 and 1.141 and 1.081
same,IC50,"[25]; Fig 2a, Env strains with Y61, ref Pancera et al.",0.0004 µM
same,IC50,[25]; individual strains with H375,> 20 µM and 18.1 µM and 4.04 µM and 8.52 µM and 12.7 µM and 4.77 µM and 2.81 µM and 13 µM and 4.13 µM and 5.13 µM
same,IC50,[25]; individual strains with S375,0.012 µM
same,IC50,"[25]; individual strains, CRF01_AE",> 20 µM and 18.1 µM and 4.04 µM and 8.52 µM and 12.7 µM and 4.77 µM and 2.81 µM and 13 µM and 4.13 µM and 5.13 µM
same,active against % of a panel of 208 HIV-1 Envs,"[25]; whole panel, different clades",91%
same,fold reduction in temsavir activity,[26],~ 90 fold
